Laboratory results taken from the NIST ThermoML archive (doi:10.1021/je060107n).
Numbers after ± are expanded uncertainties.

Assay: mn = molality of the nth substance listed, in mol/kg
Conditions: 101 kPa, Liquid; for viscosity: Capillary tube (Ostwald / Ubbelohde) method; for speed of sound: Linear variable-path acoustic interferometer; for mass density: Pycnometric method

CC(=O)[O-].CC(=O)[O-].[Mg+2] [magnesium acetate] + O
Conditions | mass density [kg/m3] | speed of sound [m/s] | viscosity [mPa·s]
293.15 K, m1 = 0.0414 | – | 1487.6 ± 1.9 | –
293.15 K, m1 = 0.0831 | – | 1497.5 ± 1.9 | –
293.15 K, m1 = 0.1671 | – | 1508.3 ± 1.9 | –
293.15 K, m1 = 0.4247 | – | 1545.4 ± 1.9 | –
293.15 K, m1 = 0.646 | – | 1577.8 ± 1.9 | –
293.15 K, m1 = 0.8751 | – | 1609.8 ± 1.9 | –
293.15 K, m1 = 1.106 | – | 1639.8 ± 1.9 | –
293.15 K, m1 = 1.354 | – | 1665.7 ± 2 | –
293.15 K, m1 = 1.608 | – | 1697.3 ± 2 | –
293.15 K, m1 = 1.866 | – | 1725.6 ± 2 | –
293.15 K, m1 = 2.134 | – | 1754.5 ± 2 | –
293.15 K, m1 = 2.411 | – | 1782.6 ± 2 | –
293.15 K, m1 = 2.622 | – | 1798.8 ± 2 | –
293.15 K, m1 = 3.043 | – | 1832.8 ± 2.1 | 14.98 ± 0.23
293.15 K, m1 = 3.437 | – | 1866.8 ± 2.1 | 24.4 ± 0.39
293.15 K, m1 = 3.819 | – | 1884.3 ± 2.1 | –
293.15 K, m1 = 4.001 | – | – | 41.34 ± 0.7
293.15 K, m1 = 4.547 | – | 1917.4 ± 2.1 | –
293.15 K, m1 = 4.563 | – | – | 75.04 ± 1.4
293.15 K, m1 = 4.929 | – | – | 97.76 ± 2.1
293.15 K, m1 = 5.165 | – | 1940.8 ± 2.2 | –
293.15 K, m1 = 5.732 | – | 1954.7 ± 2.2 | –
294.9 K, m1 = 2.411 | 1149 ± 0.7 | – | –
295.15 K, m1 = 0.4247 | 1029.4 ± 0.6 | – | –
295.15 K, m1 = 0.8751 | 1059.6 ± 0.6 | – | –
295.4 K, m1 = 0.1671 | 1010.2 ± 0.6 | – | –
296 K, m1 = 1.354 | 1089.6 ± 0.7 | – | –
296.1 K, m1 = 1.866 | 1118.6 ± 0.7 | – | –
297.95 K, m1 = 2.411 | 1147.7 ± 0.7 | – | –
298.05 K, m1 = 1.106 | 1074.8 ± 0.6 | – | –
298.15 K, m1 = 0.0414 | – | 1501.7 ± 1.9 | 0.9322 ± 0.013
298.15 K, m1 = 0.0831 | – | 1510.4 ± 1.9 | 0.964 ± 0.013
298.15 K, m1 = 0.1671 | – | 1520.6 ± 1.9 | 1.034 ± 0.014
298.15 K, m1 = 0.4247 | – | 1556.9 ± 1.9 | 1.286 ± 0.017
298.15 K, m1 = 0.646 | – | 1587.3 ± 1.9 | 1.566 ± 0.021
298.15 K, m1 = 0.8751 | – | 1616.2 ± 1.9 | 1.873 ± 0.025
298.15 K, m1 = 1.106 | – | 1645.9 ± 1.9 | 2.31 ± 0.031
298.15 K, m1 = 1.354 | – | 1671.1 ± 2 | 2.821 ± 0.039
298.15 K, m1 = 1.608 | – | 1700.3 ± 2 | 2.821 ± 0.039
298.15 K, m1 = 1.866 | – | 1727.7 ± 2 | 4.32 ± 0.061
298.15 K, m1 = 2.134 | – | 1754.6 ± 2 | 5.472 ± 0.077
298.15 K, m1 = 2.411 | – | 1781.9 ± 2 | 7.183 ± 0.1
298.15 K, m1 = 2.622 | – | 1797.3 ± 2 | 8.354 ± 0.12
298.15 K, m1 = 3.043 | – | 1829.5 ± 2.1 | 12.02 ± 0.18
298.15 K, m1 = 3.437 | – | 1861.2 ± 2.1 | 19.05 ± 0.3
298.15 K, m1 = 3.819 | – | 1878 ± 2.1 | –
298.15 K, m1 = 4.001 | – | – | 31.38 ± 0.51
298.15 K, m1 = 4.547 | – | 1908 ± 2.1 | –
298.15 K, m1 = 4.563 | – | – | 55 ± 0.93
298.15 K, m1 = 4.929 | – | – | 70.36 ± 1.3
298.15 K, m1 = 5.165 | – | 1929.7 ± 2.1 | –
298.15 K, m1 = 5.41 | – | – | 141.2 ± 2.8
298.15 K, m1 = 5.732 | – | 1940.2 ± 2.2 | –
298.3 K, m1 = 3.043 | 1175 ± 1 | – | –
298.7 K, m1 = 2.134 | 1132.2 ± 0.7 | – | –
298.75 K, m1 = 0.0831 | 1003.1 ± 0.6 | – | –
298.8 K, m1 = 3.437 | 1195.5 ± 0.8 | – | –
298.85 K, m1 = 0.646 | 1044 ± 0.7 | – | –
298.95 K, m1 = 0.8751 | 1058.5 ± 0.7 | – | –
299.15 K, m1 = 0.4247 | 1028.4 ± 0.6 | – | –
299.2 K, m1 = 2.622 | 1155.8 ± 0.7 | – | –
299.3 K, m1 = 1.866 | 1117.5 ± 0.7 | – | –
299.55 K, m1 = 5.732 | 1267.4 ± 0.9 | – | –
299.6 K, m1 = 0.1671 | 1009.1 ± 0.6 | – | –
299.65 K, m1 = 1.354 | 1088.4 ± 0.7 | – | –
300.6 K, m1 = 1.608 | 1103.6 ± 0.7 | – | –
300.85 K, m1 = 0.0414 | 999.3 ± 0.63 | – | –
301 K, m1 = 2.411 | 1146.5 ± 0.8 | – | –
301.05 K, m1 = 3.043 | 1173.8 ± 0.8 | – | –
301.35 K, m1 = 1.327 | 1086.4 ± 0.7 | – | –
301.5 K, m1 = 3.437 | 1194.2 ± 0.8 | – | –
301.55 K, m1 = 2.134 | 1131.1 ± 0.7 | – | –
301.7 K, m1 = 1.106 | 1073.7 ± 0.7 | – | –
301.75 K, m1 = 5.732 | 1266 ± 0.9 | – | –
302.05 K, m1 = 2.622 | 1154.6 ± 0.8 | – | –
302.05 K, m1 = 3.819 | 1205.9 ± 0.8 | – | –
302.25 K, m1 = 0.646 | 1043 ± 0.7 | – | –
302.4 K, m1 = 1.866 | 1116.3 ± 0.7 | – | –
302.4 K, m1 = 5.165 | 1249.6 ± 0.9 | – | –
302.5 K, m1 = 0.0831 | 1002 ± 0.6 | – | –
302.55 K, m1 = 0.8751 | 1057.4 ± 0.7 | – | –
302.7 K, m1 = 1.354 | 1087.4 ± 0.7 | – | –
302.75 K, m1 = 0.4247 | 1027.2 ± 0.7 | – | –
302.95 K, m1 = 4.547 | 1229.9 ± 0.8 | – | –
303.15 K, m1 = 0.0414 | – | 1513.4 ± 1.9 | 0.835 ± 0.011
303.15 K, m1 = 0.0831 | – | 1521.5 ± 1.9 | 0.8624 ± 0.011
303.15 K, m1 = 0.1671 | – | 1532.2 ± 1.9 | 0.9234 ± 0.012
303.15 K, m1 = 0.4247 | – | 1567.4 ± 1.9 | 1.141 ± 0.015
303.15 K, m1 = 0.646 | – | 1595.7 ± 1.9 | 1.383 ± 0.018
303.15 K, m1 = 0.8751 | – | 1625.4 ± 1.9 | 1.64 ± 0.022
303.15 K, m1 = 1.106 | – | 1651.6 ± 1.9 | 2.014 ± 0.027
303.15 K, m1 = 1.354 | – | 1676.1 ± 2 | 2.446 ± 0.033
303.15 K, m1 = 1.608 | – | 1703 ± 2 | 2.446 ± 0.033
303.15 K, m1 = 1.866 | – | 1728.9 ± 2 | 3.688 ± 0.051
303.15 K, m1 = 2.134 | – | 1755.5 ± 2 | 4.619 ± 0.064
303.15 K, m1 = 2.411 | – | 1781.3 ± 2 | 6.056 ± 0.085
303.15 K, m1 = 2.622 | – | 1795.2 ± 2 | 6.928 ± 0.098
303.15 K, m1 = 3.043 | – | 1824.8 ± 2.1 | 9.798 ± 0.14
303.15 K, m1 = 3.437 | – | 1855.5 ± 2.1 | 15.2 ± 0.23
303.15 K, m1 = 3.819 | – | 1870.5 ± 2.1 | –
303.15 K, m1 = 4.001 | – | – | 24.27 ± 0.38
303.15 K, m1 = 4.547 | – | 1899.1 ± 2.1 | –
303.15 K, m1 = 4.563 | – | – | 41.02 ± 0.68
303.15 K, m1 = 4.929 | – | – | 51.77 ± 0.92
303.15 K, m1 = 5.165 | – | 1919 ± 2.1 | –
303.15 K, m1 = 5.41 | – | – | 99.4 ± 1.6
303.15 K, m1 = 5.732 | – | 1926.8 ± 2.1 | 135.8 ± 3
303.3 K, m1 = 0.1671 | 1008 ± 0.6 | – | –
303.65 K, m1 = 1.608 | 1102.5 ± 0.7 | – | –
303.75 K, m1 = 2.411 | 1145.4 ± 1.1 | – | –
303.75 K, m1 = 3.043 | 1172.5 ± 0.8 | – | –
303.75 K, m1 = 5.732 | 1264.8 ± 0.9 | – | –
303.9 K, m1 = 3.437 | 1193.1 ± 0.7 | – | –
304.4 K, m1 = 3.819 | 1204.7 ± 0.8 | – | –
304.45 K, m1 = 0.0414 | 998.24 ± 0.63 | – | –
304.55 K, m1 = 2.134 | 1129.8 ± 0.8 | – | –
304.6 K, m1 = 5.165 | 1248.3 ± 0.9 | – | –
304.7 K, m1 = 1.327 | 1085.2 ± 0.7 | – | –
304.8 K, m1 = 2.622 | 1153.3 ± 0.8 | – | –
304.95 K, m1 = 1.106 | 1072.5 ± 0.7 | – | –
305.35 K, m1 = 4.547 | 1228.6 ± 0.8 | – | –
